Measured values as given in paper PMC11342128, “Gold(I) and gold(III) carbene complexes from the marine betaine norzooanemonin: inhibition of thioredoxin reductase, antiproliferative and antimicrobial activity” (RSC Medicinal Chemistry, 2024).
Values joined by “and” are separate entries in the source; they are usually repeats but may differ in a detail not shown here. Equal values may be shown once. Read-outs that look alike come from different tables or passages of the source.

Experiments:
[1] = tested on: A549 lung carcinoma cells; assay: Antiproliferative activity, crystal violet assay; type: cell-based; conditions: 72 h exposure, SD in parentheses, n = 3
Method: (§1) The antiproliferative potential of the gold–NHC complexes was determined in A549 lung carcinoma cells, MDA-MB-231 breast cancer cells, MCF-7 breast adenocarcinoma cells, and HT-29 colon carcinoma cells (Table 1). Vero E6 African green monkey kidney cells served as a reference cell line to check for possible tumour selectivity. Auranofin (AF) was used as an established reference drug.[15,17] […]
(§2) S2.2. Cytotoxicity and Anticancer Studies
(§3) Cell culture and cytotoxicity
(§4) Cell lines were sourced from DSMZ (German Collection of Microorganisms and Cell Cultures GmbH) and maintained through standard procedures in Dulbecco's Modified Eagle Medium (DMEM) supplemented with 10% fetal calf serum and 50 mg/L gentamycin. Antiproliferative effects were assessed using a well-established assay protocol. In brief, 100 μL volumes of A549 cells (13,243 cells per mL), HT-29 cells (14,657 cells per mL), MDA-MB-231 cells (6,613 cells per mL), or MCF-7 cells (6,917 cells per mL) were transferred into the wells of 96-well plates and incubated at 37°C/5% CO2 for 72 […]
(§5) Freshly prepared stock solutions of the compounds in DMSO were diluted with the respective cell culture medium to achieve graded concentrations (final concentration of DMSO: 0.1% v/v). After 72 hours (A549, HT-29) or 96 hours (MCF-7, MDA-MB-231) of exposure, the cell biomass was assessed through crystal violet staining, and the IC50 value was determined as the concentration causing 50% inhibition of cell proliferation compared to an untreated control. Results were calculated as the mean values of three independent experiments.

[2] = tested on: HT-29 colon carcinoma cells; assay: Antiproliferative activity, crystal violet assay; type: cell-based; conditions: 72 h exposure, SD in parentheses, n = 3
Method: as §1, §2, §3, §4, §5

[3] = tested on: MCF-7 breast adenocarcinoma cells; assay: Antiproliferative activity, crystal violet assay; type: cell-based; conditions: 96 h exposure, SD in parentheses, n = 3
Method: as §1, §2, §3, §4, §5

[4] = tested on: MDA-MB-231 breast cancer cells; assay: Antiproliferative activity, crystal violet assay; type: cell-based; conditions: 96 h exposure, SD in parentheses, n = 3
Method: as §1, §2, §3, §4, §5

[5] = tested on: Vero E6 African green monkey kidney cells; assay: Antiproliferative activity in non-tumour reference cell line; type: cell-based; conditions: for IC50: Vero E6 non-tumour reference cell line, SD in parentheses, n = 3
Method: as §1, §2, §3, §4, §5

[6] = tested on: Acinetobacter baumannii DSM30007; assay: Antibacterial activity (MIC, curve fitting); type: cell-based; conditions: for MIC, A.b.: Table 2, Acinetobacter baumannii DSM30007, 18 h, 37 °C; for MIC, A. baumannii: Table S12, ± standard error of the mean
Method: (§6) The antibacterial activity of all gold complexes was assessed against six pathogenic bacterial strains, including two Gram-positive species, i.e. Enterococcus faecium and methicillin-resistant Staphylococcus aureus (MRSA), and four Gram-negative species, i.e. Acinetobacter baumannii, Escherichia coli, Klebsiella pneumoniae, and Pseudomonas aeruginosa. Minimum inhibitory concentrations (MICs) were determined using a curve-fitting technique.
(§7) S2.1. Antibacterial Studies
(§8) Bacterial cultures were prepared by overnight aerobic incubation at 37 °C. Gram-negative strains were cultivated in Müller Hinton broth supplemented with 1% glucose at pH 7.2, while Gram-positive strains were grown in Trypticase soy yeast extract medium (TSY) with a composition of 30 g/l trypticase soy broth, 3 g/l yeast extract, and pH 7.2. The cultures were adjusted to an OD600 of 0.001, resulting in a final starting OD600 of 0.0005 for the subsequent tests. For testing, 25 μL of the prepared culture was combined with 25 μL of serially diluted test compounds in 384 well plates, following established protocols for different strains. Screening was performed at compound concentrations of 0.5, 5, and 50 µM, and for selected compounds, growth inhibition curves were recorded using DMSO stock solutions […]
(§9) Positive control compounds, namely linezolid (for MRSA strains), ciprofloxacin (for E. faecium and E. coli), and amikacin (for P. aeruginosa), were included. The maximum DMSO concentration in the assay […]
(§10) After an 18-hour incubation at 37 °C under moist conditions, the optical density at 600 nm was measured using a Fusion Universal Microplate Analyser (Perkin–Elmer, Waltham, USA). The minimum inhibitory concentration (MIC) values, representing the […]
(§11) fitting with Sigma Plot. The bacterial strains used included Gram-negative strains: Escherichia coli (DSM 1116), A. baumannii (DSM30007), K. pneumoniae (DSM111678), and Pseudomonas aeruginosa PA7 (DSM 24068); and Gram-positive strains: E. faecium (DSM20477) and Staphylococcus aureus MRSA

[7] = tested on: Enterococcus faecium DSM20477; assay: Antibacterial activity (MIC, curve fitting); type: cell-based; conditions: for MIC, E.f.: Table 2, Enterococcus faecium DSM20477, 18 h, 37 °C; for MIC, E. faecium: Table S12, ± standard error of the mean
Method: as §6, §7, §8, §9, §10, §11

[8] = tested on: Escherichia coli DSM 1116; assay: Antibacterial activity (MIC, curve fitting); type: cell-based; conditions: for MIC, E.c.: Table 2, Escherichia coli DSM 1116, 18 h, 37 °C; for MIC, E. coli: Table S12, ± standard error of the mean
Method: as §6, §7, §8, §9, §10, §11

[9] = tested on: Klebsiella pneumoniae DSM111678; assay: Antibacterial activity (MIC, curve fitting); type: cell-based; conditions: for MIC, K.p.: Table 2, Klebsiella pneumoniae DSM111678, 18 h, 37 °C; for MIC, K. pneumoniae: Table S12, ± standard error of the mean
Method: as §6, §7, §8, §9, §10, §11

[10] = tested on: Pseudomonas aeruginosa DSM 24068; assay: Antibacterial activity (MIC, curve fitting); type: cell-based; conditions: for MIC, P.a.: Table 2, Pseudomonas aeruginosa DSM 24068, 18 h, 37 °C; for MIC, P. aeruginosa: Table S12, ± standard error of the mean
Method: as §6, §7, §8, §9, §10, §11

[11] = tested on: methicillin-resistant Staphylococcus aureus DSM 11822; assay: Antibacterial activity (MIC, curve fitting); type: cell-based
Method: as §6, §7, §8, §9, §10, §11

[12] = molecular target: T1, TrxR from E. coli (Escherichia coli, UniProt P0A9P4); assay: Inhibition of isolated bacterial TrxR, DTNB-based assay; type: biochemical; parameters: purchased Sigma-Aldrich; conditions: for TrxR activity, % of control: compounds at 0.5 µM, n = 2, Table S13; for IC50: isolated E. coli TrxR, DTNB assay, ± standard deviation, n = 3
T1 sequence (P0A9P4 2-321): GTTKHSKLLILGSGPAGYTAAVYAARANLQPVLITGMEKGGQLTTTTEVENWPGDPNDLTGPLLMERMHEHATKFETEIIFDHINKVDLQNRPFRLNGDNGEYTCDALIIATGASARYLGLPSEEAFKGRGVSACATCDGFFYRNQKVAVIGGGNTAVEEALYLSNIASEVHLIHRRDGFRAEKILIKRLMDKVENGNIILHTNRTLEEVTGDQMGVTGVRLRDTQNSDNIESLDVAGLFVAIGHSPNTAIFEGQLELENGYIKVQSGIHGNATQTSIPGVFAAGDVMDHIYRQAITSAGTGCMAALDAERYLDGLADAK
Method: The inhibition of isolated TrxR from E. coli was determined for the selected monocarbene gold(I/III) complexes 2a–c and 4b–c using a DTNB-based assay (Table 3). […] The inhibition of bacterial TrxR for compound 2a was investigated in our previous report (Table 3).
S2.3. Inhibition of bacterial TrxR from E. coli
The TrxR (E. coli) inhibition assay was performed according to previously published procedures.[8] The assay is partly based on the procedure developed by Lu et al[9] and makes use of the reduction of DTNB (5,5′-dithiobis-(2-nitrobenzoic acid)). Solutions of E. coli TrxR (10.1 U/mL) and E. coli thioredoxin (Trx) (312 μg/mL) (both purchased from Sigma-Aldrich) were prepared in distilled water. Stock solutions of the test compounds (2 mM) were prepared in DMSO and serially diluted with TE buffer (Tris-HCl 50 mM, EDTA 1 mM, pH 7.5). 20 μL of these solutions or TE buffer without the test compounds (positive control) were mixed with the TrxR solution (10 μL), the Trx solution (10 μL) and 100 µl of NADPH (200 μM) in TE buffer in a well on a 96-well plate. As a blank control, 200 μM NADPH in TE buffer (100 μL) mixed with a DMSO / buffer mixture (40 μL) was used (final concentrations of DMSO: 0.5% v/v). The plate was incubated for 75 min at 25°C with moderate shaking. After incubation, 100 μL of a reaction mixture (TE buffer containing 200 μM NADPH and 5 mM DTNB) was added to each well to initiate the reaction. After thorough mixing, the formation of 5-TNB was monitored by a microplate reader at 405 nm in 35 s intervals (10 measurements). The values were corrected by subtraction of the blank solution absorption values. The increase in concentration of 5-TNB followed a linear trend (r2≥ 0.990) and the enzymatic activities were calculated as the gradients (increase in absorbance per second) thereof. […]
for each test compound, where the highest test compound concentration was used and the enzyme solution was replaced by TE buffer. The inhibition is presented as the mean IC50 values and standard deviations obtained in three independent experiments.
Table S13. Activity of TrxR from E. coli in presence of compounds at 0.5 µM (n = 2, n.d.= not

[13] = tested on: A549 lung carcinoma cells; parameters: method as in PMID 38205632; conditions: read-out: Antiproliferative activity IC50, A549; cited from earlier work
[14] = tested on: HT-29 colon carcinoma cells; parameters: method as in PMID 38205632; conditions: read-out: Antiproliferative activity IC50, HT-29; cited from earlier work
[15] = tested on: MCF-7 breast adenocarcinoma cells; parameters: method as in PMID 38205632; conditions: read-out: Antiproliferative activity IC50, MCF-7; cited from earlier work
[16] = tested on: MDA-MB-231 breast cancer cells; parameters: method as in PMID 38205632; conditions: read-out: Antiproliferative activity IC50, MDA-MB-231; cited from earlier work
[17] = molecular target: T1, TrxR from E. coli; conditions: read-out: Inhibition of bacterial TrxR, IC50; isolated E. coli TrxR; investigated in previous report; cited from earlier work
[18] = Table 2, MRSA DSM 11822, 18 h, 37 °C
[19] = Table S12, ± standard error of the mean

| SMILES | IC50 [1] | IC50 [2] | IC50 [3] | IC50 [4] | IC50 [5] | MIC, A.b. [6] | MIC, A. baumannii [6] | MIC, E.f. [7] | MIC, E. faecium [7] | MIC, E.c. [8] | MIC, E. coli [8] | MIC, K.p. [9] | MIC, K. pneumoniae [9] | MIC, P.a. [10] | MIC, P. aeruginosa [10] | MIC, MRSA [11, 18] | MIC, MRSA [11, 19] | TrxR activity, % of control [12] | IC50 [12] | further results |
| --- | --- | --- | --- | --- | --- | --- | --- | --- | --- | --- | --- | --- | --- | --- | --- | --- | --- | --- | --- | --- |
| CCOC(=O)c1cn(C)[c]([Au-][Cl])[n+]1C [2c] | 10.4 µM | 22.1 µM | 9.93 µM | 8.9 µM | 13.1 µM | 10 µM and 10 ± 2 µM | 9.98 ± 2.07 µM | 10 µM and 10 ± 0 µM | 9.98 ± 0 µM | 40 µM and 40 ± 0 µM | 39.94 ± 0 µM | 40 µM and 40 ± 0 µM | 39.94 ± 0 µM | >100 µM | > 100 µM | 10 µM and 10 ± 0 µM | 9.98 ± 0 µM | 13.8 % of control | 0.133 ± 0.044 µM |  |
| CC(=O)OC[C@H]1O[C@@H]([S-])[C@H](OC(C)=O)[C@@H](OC(C)=O)[C@@H]1OC(C)=O.CCP(CC)CC.[Au+] [AF, auranofin, reference compound] | 3.53 µM | 4.32 µM | 1.89 µM | 0.8 µM | 2.4 µM | 55 µM | 55 µM | 0.3 µM | 0.3 µM | 46 µM | 46 µM | 81 µM | 81 µM | >100 µM | > 100 µM | 0.4 µM | 0.4 µM |  | 0.21 ± 0.03 µM |  |
| Cn1cc(C(=O)O)[n+](C)[c]1[Au-][Cl] [2a] |  |  |  |  |  | 43 ± 0 µM | 42.95 ± 0 µM | >100 µM | > 100 µM | 86 ± 0 µM | 85.89 ± 0 µM | 43 ± 7 µM | 42.95 ± 6.75 µM | >100 µM | > 100 µM | >100 µM | > 100 µM | 94.6 % of control |  | IC50 [13]: 60 µM; IC50 [14]: 63.9 µM; IC50 [15]: 53.4 µM; IC50 [16]: 76.1 µM; IC50 [17]: 0.786 ± 0.118 µM |
| CCOC(=O)c1cn(C)[c]([Au-][c]2n(C)cc(C(=O)OCC)[n+]2C)[n+]1C.F[B-](F)(F)F [3c] | 1.07 µM | 5.78 µM | 4.64 µM | 2.51 µM | 31.5 µM |  | > 100 µM |  | > 100 µM |  | > 100 µM |  | > 100 µM |  | > 100 µM |  | 25.79 ± 0 µM | 115 % of control |  | Tumour selectivity: tumour cell lines in comparison to Vero E6 ([5]; comparison of IC50 in tumour cell lines and non-tumour Vero E6): clear preference for the tumour cell lines |
